Data from patent US20150011423A1, “MEANS AND METHODS FOR ASSESSING KIDNEY TOXICITY” (BASF SE, priority 2011, published 2015).
Where two headings read alike, the source gives them in different places. Marks after values point to notes of the source that are not given here.

Assays:
[1] = test system: rats; experiment: 28-day repeated dose study in rats with mass spectrometry-based plasma metabolite profiling (GC-MS, LC-MS, SPE-LC-MS); treatment ratios versus control; conditions: plasma; for Glutamate, treatment ratio versus control / Lysophosphatidylcholine (C20:4), treatment ratio versus control: Table 1d diuretic effect; for Choline plasmalogen No 02 (putative), treatment ratio versus control / Lysophosphatidylcholine (C17:0), treatment ratio versus control / TAG (C42:9) (DAG-Fragment) (putative), treatment ratio versus control: Table 11b alpha 2 u globulin-nephropathy; for Creatine, treatment ratio versus control / Creatinine, treatment ratio versus control / Glycerol-3-phosphate, polar fraction, treatment ratio versus control / Lysophosphatidylcholine (C18:2), treatment ratio versus control / Threonic acid, treatment ratio versus control: Table 2c glomerular-tubular defect; for 4-Hydroxy-3-methoxyphenylglycol (HMPG), treatment ratio versus control / Cysteine, treatment ratio versus control / Isopalmitic acid (C16:0), treatment ratio versus control / Metanephrine, treatment ratio versus control / Normetanephrine, treatment ratio versus control: Table 2d glomerular-tubular defect
[2] = test system: rats; conditions: rat, in vivo
[3] = male rats, day 7, high dose, Table 1c diuretic effect
[4] = male rats, day 14, high dose, Table 1c diuretic effect
[5] = male rats, day 28, high dose, Table 1c diuretic effect
[6] = male rats, day 7, high doses except for 1,1,2,2-tetrachloroethane
[7] = male rats, day 14, high doses except for 1,1,2,2-tetrachloroethane
[8] = male rats, day 28, high doses except for 1,1,2,2-tetrachloroethane

With Cn1cnc2c1c(=O)[nH]c(=O)n2C [Theobromine] the “Ceramide (d18:1, C24:0), treatment ratio versus control” value [1, 3] was 0.84^, the “Choline plasmalogen No 02, treatment ratio versus control” value [1, 3] was 1.38 * and the “Glutamate, treatment ratio versus control” value ([1]; male rats, day 7, high dose) was 0.74 *. For the same molecule, the “Lysophosphatidylcholine (C20:4), treatment ratio versus control” value ([1]; male rats, day 7, high dose) was 0.8 *, the “Ceramide (d18:1, C24:0), treatment ratio versus control” value [1, 4] was 1.35 * and the “Choline plasmalogen No 03, treatment ratio versus control” value [1, 4] was 1.1. For the same molecule, the “Threonine, treatment ratio versus control” value [1, 4] was 1.53 *, the “Glutamate, treatment ratio versus control” value ([1]; male rats, day 14, high dose) was 0.94 * and the “Lysophosphatidylcholine (C20:4), treatment ratio versus control” value ([1]; male rats, day 14, high dose) was 0.86 *. For the same molecule, the “Ceramide (d18:1, C24:1), treatment ratio versus control” value [1, 5] was 1.52^, the “Choline plasmalogen No 03, treatment ratio versus control” value [1, 5] was 1.1 * and the “Sphingomyelin (d18:2, C16:0), treatment ratio versus control” value [1, 5] was 1.9 *. For the same molecule, the “Glutamate, treatment ratio versus control” value ([1]; male rats, day 28, high dose) was 0.87 *, the “Lysophosphatidylcholine (C20:4), treatment ratio versus control” value ([1]; male rats, day 28, high dose) was 0.8 * and the “Ceramide (d18:1, C24:0), treatment ratio versus control” value [2] was 1.33 *. The “Choline plasmalogen No 03, treatment ratio versus control” value [2] was 1.08 *.
With ClC(Cl)C(Cl)Cl [1,1,2,2-Tetrachloroethane] the “3-Hydroxyindole (ratio treated vs control)” value ([1]; m7: male rats, day 7) was 1.39, the “4-Hydroxysphinganine (t18:0, Phytosphingosine), total (ratio treated vs control)” value ([1]; m7: male rats, day 7) was 2.03 and the “Glucuronic acid (ratio treated vs control)” value ([1]; m7: male rats, day 7) was 3.97. The “Glutamate (ratio treated vs control)” value ([1]; m7: male rats, day 7) was 2.31, the “Nervonic acid (C24:cis[15]1) (ratio treated vs control)” value ([1]; m7: male rats, day 7) was 1.09 and the “Oleic acid (C18:cis[9]1) (ratio treated vs control)” value ([1]; m7: male rats, day 7) was 1.11. The “Ornithine (ratio treated vs control)” value ([1]; m7: male rats, day 7) was 2.10, the “Pantothenic acid (ratio treated vs control)” value ([1]; m7: male rats, day 7) was 4.46 and the “Phosphatidylcholine (C18:0, C18:1) (ratio treated vs control)” value ([1]; m7: male rats, day 7) was 1.48. For the same molecule, the “Pseudouridine (ratio treated vs control)” value ([1]; m7: male rats, day 7) was 1.17, the “Sphingomyelin (d18:1, C16:0) (ratio treated vs control)” value ([1]; m7: male rats, day 7) was 1.65 and the “Sphingomyelin (d18:2, C18:0) (ratio treated vs control)” value ([1]; m7: male rats, day 7) was 1.22. For the same molecule, the “Xylitol (ratio treated vs control)” value ([1]; m7: male rats, day 7) was 12.21, the “dihomo-gamma-Linolenic acid (C20:cis[8,11,14]3) (ratio treated vs control)” value ([1]; m7: male rats, day 7) was 2.56 and the “3-Hydroxyindole (ratio treated vs control)” value ([1]; m14: male rats, day 14) was 2.05. The “4-Hydroxysphinganine (t18:0, Phytosphingosine), total (ratio treated vs control)” value ([1]; m14: male rats, day 14) was 2.04, the “Glucuronic acid (ratio treated vs control)” value ([1]; m14: male rats, day 14) was 1.20 and the “Glutamate (ratio treated vs control)” value ([1]; m14: male rats, day 14) was 1.80. For the same molecule, the “Nervonic acid (C24:cis[15]1) (ratio treated vs control)” value ([1]; m14: male rats, day 14) was 0.96, the “Oleic acid (C18:cis[9]1) (ratio treated vs control)” value ([1]; m14: male rats, day 14) was 1.18 and the “Ornithine (ratio treated vs control)” value ([1]; m14: male rats, day 14) was 2.38. The “Pantothenic acid (ratio treated vs control)” value ([1]; m14: male rats, day 14) was 4.32, the “Phosphatidylcholine (C18:0, C18:1) (ratio treated vs control)” value ([1]; m14: male rats, day 14) was 1.21 and the “Pseudouridine (ratio treated vs control)” value ([1]; m14: male rats, day 14) was 1.51. The “Sphingomyelin (d18:1, C16:0) (ratio treated vs control)” value ([1]; m14: male rats, day 14) was 1.34, the “Sphingomyelin (d18:2, C18:0) (ratio treated vs control)” value ([1]; m14: male rats, day 14) was 0.93 and the “Xylitol (ratio treated vs control)” value ([1]; m14: male rats, day 14) was 10.32. The “dihomo-gamma-Linolenic acid (C20:cis[8,11,14]3) (ratio treated vs control)” value ([1]; m14: male rats, day 14) was 3.40, the “3-Hydroxyindole (ratio treated vs control)” value ([1]; m28: male rats, day 28) was 2.05 and the “4-Hydroxysphinganine (t18:0, Phytosphingosine), total (ratio treated vs control)” value ([1]; m28: male rats, day 28) was 2.04. The “Glucuronic acid (ratio treated vs control)” value ([1]; m28: male rats, day 28) was 1.20, the “Glutamate (ratio treated vs control)” value ([1]; m28: male rats, day 28) was 1.80 and the “Nervonic acid (C24:cis[15]1) (ratio treated vs control)” value ([1]; m28: male rats, day 28) was 0.96. The “Oleic acid (C18:cis[9]1) (ratio treated vs control)” value ([1]; m28: male rats, day 28) was 1.18, the “Ornithine (ratio treated vs control)” value ([1]; m28: male rats, day 28) was 2.38 and the “Pantothenic acid (ratio treated vs control)” value ([1]; m28: male rats, day 28) was 4.32. For the same molecule, the “Phosphatidylcholine (C18:0, C18:1) (ratio treated vs control)” value ([1]; m28: male rats, day 28) was 1.21, the “Pseudouridine (ratio treated vs control)” value ([1]; m28: male rats, day 28) was 1.51 and the “Sphingomyelin (d18:1, C16:0) (ratio treated vs control)” value ([1]; m28: male rats, day 28) was 1.34. The “Sphingomyelin (d18:2, C18:0) (ratio treated vs control)” value ([1]; m28: male rats, day 28) was 0.93, the “Xylitol (ratio treated vs control)” value ([1]; m28: male rats, day 28) was 10.32 and the “dihomo-gamma-Linolenic acid (C20:cis[8,11,14]3) (ratio treated vs control)” value ([1]; m28: male rats, day 28) was 3.40. The “Choline plasmalogen No 02 (putative), treatment ratio versus control” value [1, 6] was 1.04, the “Lysophosphatidylcholine (C17:0), treatment ratio versus control” value [1, 6] was 0.63 and the “TAG (C42:9) (DAG-Fragment) (putative), treatment ratio versus control” value (“TAG … treatment ratio versus control” below) [1, 6] was 0.76. For the same molecule, the “Choline plasmalogen No 02 (putative), treatment ratio versus control” value [1, 7] was 1.13, the “Lysophosphatidylcholine (C17:0), treatment ratio versus control” value [1, 7] was 0.89 and the “TAG … treatment ratio versus control” value [1, 7] was 0.72. For the same molecule, the “Choline plasmalogen No 02 (putative), treatment ratio versus control” value [1, 8] was 1.13, the “Lysophosphatidylcholine (C17:0), treatment ratio versus control” value [1, 8] was 0.89 and the “TAG … treatment ratio versus control” value [1, 8] was 0.72.
Tricresyl phosphate was tested, and the “Creatine, treatment ratio versus control” value ([1]; male rats, day 7, high dose) was 1.16 *, the “Creatinine, treatment ratio versus control” value ([1]; male rats, day 7, high dose) was 0.77^ and the “Glycerol-3-phosphate, polar fraction, treatment ratio versus control” value ([1]; male rats, day 7, high dose) was 0.83 *. The “Lysophosphatidylcholine (C18:2), treatment ratio versus control” value ([1]; male rats, day 7, high dose) was 1.19^, the “Threonic acid, treatment ratio versus control” value ([1]; male rats, day 7, high dose) was 1.32 * and the “4-Hydroxy-3-methoxyphenylglycol (HMPG), treatment ratio versus control” value ([1]; male rats, day 7, high dose) was 0.95^. The “Cysteine, treatment ratio versus control” value ([1]; male rats, day 7, high dose) was 0.44 *, the “Isopalmitic acid (C16:0), treatment ratio versus control” value ([1]; male rats, day 7, high dose) was 0.84 * and the “Metanephrine, treatment ratio versus control” value ([1]; male rats, day 7, high dose) was 0.43 *. The “Normetanephrine, treatment ratio versus control” value ([1]; male rats, day 7, high dose) was 0.74 *, the “Creatine, treatment ratio versus control” value ([1]; male rats, day 14, high dose) was 1.42 * and the “Creatinine, treatment ratio versus control” value ([1]; male rats, day 14, high dose) was 0.74^. The “Glycerol-3-phosphate, polar fraction, treatment ratio versus control” value ([1]; male rats, day 14, high dose) was 0.89^, the “Lysophosphatidylcholine (C18:2), treatment ratio versus control” value ([1]; male rats, day 14, high dose) was 1.27 * and the “Threonic acid, treatment ratio versus control” value ([1]; male rats, day 14, high dose) was 1.5 *. The “4-Hydroxy-3-methoxyphenylglycol (HMPG), treatment ratio versus control” value ([1]; male rats, day 14, high dose) was 0.93 *, the “Cysteine, treatment ratio versus control” value ([1]; male rats, day 14, high dose) was 0.51 * and the “Isopalmitic acid (C16:0), treatment ratio versus control” value ([1]; male rats, day 14, high dose) was 0.76 *. For the same molecule, the “Metanephrine, treatment ratio versus control” value ([1]; male rats, day 14, high dose) was 0.74 *, the “Normetanephrine, treatment ratio versus control” value ([1]; male rats, day 14, high dose) was 0.71 * and the “Creatine, treatment ratio versus control” value ([1]; male rats, day 28, high dose) was 1.11 *. The “Creatinine, treatment ratio versus control” value ([1]; male rats, day 28, high dose) was 0.78 *, the “Glycerol-3-phosphate, polar fraction, treatment ratio versus control” value ([1]; male rats, day 28, high dose) was 0.89^ and the “Lysophosphatidylcholine (C18:2), treatment ratio versus control” value ([1]; male rats, day 28, high dose) was 1.15 *. For the same molecule, the “Threonic acid, treatment ratio versus control” value ([1]; male rats, day 28, high dose) was 1.53 *, the “4-Hydroxy-3-methoxyphenylglycol (HMPG), treatment ratio versus control” value ([1]; male rats, day 28, high dose) was 0.83 * and the “Cysteine, treatment ratio versus control” value ([1]; male rats, day 28, high dose) was 0.55 *. For the same molecule, the “Isopalmitic acid (C16:0), treatment ratio versus control” value ([1]; male rats, day 28, high dose) was 0.62 *, the “Metanephrine, treatment ratio versus control” value ([1]; male rats, day 28, high dose) was 0.76^ and the “Normetanephrine, treatment ratio versus control” value ([1]; male rats, day 28, high dose) was 1.03^.
